Measured values as given in ChEMBL document CHEMBL4177553, “Rapid screening the potential mechanism-based inhibitors of CYP3A4 from Tripterygium wilfordi based on computer approaches combined with in vitro bioassay” (Bioorg Med Chem, 2017).

What was measured:
[1] = molecular target: T1, Cytochrome P450 3A4 (Homo sapiens, UniProt P08684); experiment: Inhibition of CYP3A4 in human liver microsomes assessed as reduction in formation of midazolam to 1-Hydroxy midazolam at 50 uM preincubated for 30 mins followed by substrate addition measured after 15 mins in presence of NADPH by UPLC-MS analysis; format: ADME; conditions: 0.25 h
[2] = molecular target: T2, Cytochrome P450 1A2 (Homo sapiens, UniProt P05177); experiment: Inhibition of CYP1A2 in human liver microsomes assessed as reduction in formation of phenacetin to acetaminophen at 50 uM preincubated for 30 mins followed by substrate addition measured after 15 mins in presence of NADPH by UPLC-MS analysis; format: ADME; conditions: 0.25 h
T2 sequence (P05177 whole entry): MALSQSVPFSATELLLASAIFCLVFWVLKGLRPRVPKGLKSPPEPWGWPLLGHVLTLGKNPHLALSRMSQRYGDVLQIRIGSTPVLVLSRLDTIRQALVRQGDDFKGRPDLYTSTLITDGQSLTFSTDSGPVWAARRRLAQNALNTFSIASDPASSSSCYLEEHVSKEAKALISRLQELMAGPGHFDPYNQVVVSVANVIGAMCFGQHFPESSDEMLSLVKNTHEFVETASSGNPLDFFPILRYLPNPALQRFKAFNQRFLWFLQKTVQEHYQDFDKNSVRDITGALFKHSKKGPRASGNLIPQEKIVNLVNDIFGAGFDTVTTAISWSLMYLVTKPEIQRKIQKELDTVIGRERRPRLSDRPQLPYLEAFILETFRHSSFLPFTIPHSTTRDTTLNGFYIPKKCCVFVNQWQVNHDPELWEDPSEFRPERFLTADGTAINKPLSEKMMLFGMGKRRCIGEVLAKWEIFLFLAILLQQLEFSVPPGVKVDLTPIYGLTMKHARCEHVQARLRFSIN

[3] = molecular target: Cytochrome P450 2C9 (Homo sapiens, UniProt P11712); experiment: Inhibition of CYP2C9 in human liver microsomes assessed as reduction in formation of tolbutamide to 4-Hydroxytolbutamide at 50 uM preincubated for 30 mins followed by substrate addition measured after 15 mins in presence of NADPH by UPLC-MS analysis; format: ADME; conditions: 0.25 h
[4] = molecular target: Cytochrome P450 2C19 (Homo sapiens, UniProt P33261); experiment: Inhibition of CYP2C19 in human liver microsomes assessed as reduction in formation of mephenytoin to 4-Hydroxy mephenytoin at 50 uM preincubated for 30 mins followed by substrate addition measured after 15 mins in presence of NADPH by UPLC-MS analysis; format: ADME; conditions: 0.25 h
[5] = molecular target: Cytochrome P450 2D6 (Homo sapiens, UniProt P10635); experiment: Inhibition of CYP2D6 in human liver microsomes assessed as reduction in formation of dextromethorphan to dextrorphan at 50 uM preincubated for 30 mins followed by substrate addition measured after 15 mins in presence of NADPH by UPLC-MS analysis; format: ADME; conditions: 0.25 h
[6] = molecular target: Cytochrome P450 2E1 (Homo sapiens, UniProt P05181); experiment: Inhibition of CYP2E1 in human liver microsomes assessed as reduction in formation of chlorzoxazone to 6-Hydroxy chlorzoxazone at 50 uM preincubated for 30 mins followed by substrate addition measured after 15 mins in presence of NADPH by UPLC-MS analysis; format: ADME; conditions: 0.25 h
[7] = molecular target: T1, Cytochrome P450 3A4; experiment: Inhibition of CYP3A4 in human liver microsomes assessed as reduction in formation of midazolam to 1-Hydroxy midazolam at 50 uM preincubated for 30 mins followed by substrate addition measured after 15 mins in presence of varying levels of NADPH by UPLC-MS analysis; format: ADME; conditions: 0.25 h
[8] = molecular target: T1, Cytochrome P450 3A4; experiment: Drug metabolism in human liver microsomes assessed as CYP3A4-mediated metabolite formation at […] preincubated for 5 mins followed by NADPH addition measured after 2 hrs by UPLC-MS/MS analysis; format: ADME
[9] = molecular target: T1, Cytochrome P450 3A4; experiment: Inhibition of CYP3A4 in human liver microsomes assessed as reduction in formation of midazolam to 1-Hydroxy midazolam preincubated for 30 mins followed by substrate addition measured after 15 mins in presence of NADPH by UPLC-MS analysis; format: ADME; conditions: 0.25 h
[10] = molecular target: T1, Cytochrome P450 3A4; experiment: Drug metabolism in human liver microsomes assessed as CYP3A4-mediated M1 metabolite formation at […] preincubated for 5 mins followed by NADPH addition measured after 2 hrs by UPLC-MS/MS analysis; format: ADME
[11] = molecular target: T1, Cytochrome P450 3A4; experiment: Drug metabolism in human liver microsomes assessed as CYP3A4-mediated M2 metabolite formation at […] preincubated for 5 mins followed by NADPH addition measured after 2 hrs by UPLC-MS/MS analysis; format: ADME
[12] = Retention time of the compound in human liver microsomes by UPLC-MS/MS analysis; format: ADME, microsome
[13] = Drug metabolism in human liver microsomes assessed as monohydroxy formation in presence of GSH and water by UPLC-MS/MS analysis; format: ADME, microsome

Cytochrome P450 2D6, sequence (P10635 whole entry): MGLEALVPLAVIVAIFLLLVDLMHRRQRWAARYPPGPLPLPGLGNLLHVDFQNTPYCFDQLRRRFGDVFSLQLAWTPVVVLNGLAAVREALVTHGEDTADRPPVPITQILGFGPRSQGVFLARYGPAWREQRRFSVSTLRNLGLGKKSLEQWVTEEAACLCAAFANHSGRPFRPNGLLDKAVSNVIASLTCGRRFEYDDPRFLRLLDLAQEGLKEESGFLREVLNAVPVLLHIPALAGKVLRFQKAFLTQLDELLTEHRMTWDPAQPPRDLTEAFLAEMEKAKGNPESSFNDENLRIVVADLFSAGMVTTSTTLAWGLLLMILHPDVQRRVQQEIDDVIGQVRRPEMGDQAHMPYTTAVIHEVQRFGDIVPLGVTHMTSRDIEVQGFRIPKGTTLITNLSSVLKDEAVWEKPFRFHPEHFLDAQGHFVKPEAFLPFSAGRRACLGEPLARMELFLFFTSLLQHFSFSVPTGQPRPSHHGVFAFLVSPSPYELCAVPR
T1 sequence (P08684 whole entry): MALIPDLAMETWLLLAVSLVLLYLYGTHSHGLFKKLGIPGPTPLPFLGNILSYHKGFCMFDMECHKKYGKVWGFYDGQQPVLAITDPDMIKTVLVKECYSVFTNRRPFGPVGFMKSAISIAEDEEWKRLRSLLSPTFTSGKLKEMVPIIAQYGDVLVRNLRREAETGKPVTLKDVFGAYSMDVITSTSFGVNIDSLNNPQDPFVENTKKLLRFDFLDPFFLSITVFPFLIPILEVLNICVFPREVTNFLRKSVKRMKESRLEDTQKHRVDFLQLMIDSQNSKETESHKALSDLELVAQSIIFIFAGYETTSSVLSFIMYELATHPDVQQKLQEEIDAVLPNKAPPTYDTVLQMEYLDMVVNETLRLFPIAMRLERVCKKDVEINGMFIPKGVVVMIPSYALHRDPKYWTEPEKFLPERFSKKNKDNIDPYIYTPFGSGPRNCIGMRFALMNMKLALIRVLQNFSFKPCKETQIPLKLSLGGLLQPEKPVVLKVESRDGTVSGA
Cytochrome P450 2C9, sequence (P11712 whole entry): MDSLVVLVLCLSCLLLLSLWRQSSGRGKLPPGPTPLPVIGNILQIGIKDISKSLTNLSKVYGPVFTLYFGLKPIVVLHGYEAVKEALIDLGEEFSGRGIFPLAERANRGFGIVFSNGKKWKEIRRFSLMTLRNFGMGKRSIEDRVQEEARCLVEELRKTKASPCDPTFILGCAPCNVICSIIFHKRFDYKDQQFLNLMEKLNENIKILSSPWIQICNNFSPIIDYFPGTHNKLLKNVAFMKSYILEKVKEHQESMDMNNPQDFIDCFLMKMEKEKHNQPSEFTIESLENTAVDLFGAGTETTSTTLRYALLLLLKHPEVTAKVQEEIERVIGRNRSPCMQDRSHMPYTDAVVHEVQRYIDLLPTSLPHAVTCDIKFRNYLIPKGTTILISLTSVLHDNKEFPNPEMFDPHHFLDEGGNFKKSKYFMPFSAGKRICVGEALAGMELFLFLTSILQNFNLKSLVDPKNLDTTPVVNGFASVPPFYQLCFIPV
Cytochrome P450 2C19, sequence (P33261 whole entry): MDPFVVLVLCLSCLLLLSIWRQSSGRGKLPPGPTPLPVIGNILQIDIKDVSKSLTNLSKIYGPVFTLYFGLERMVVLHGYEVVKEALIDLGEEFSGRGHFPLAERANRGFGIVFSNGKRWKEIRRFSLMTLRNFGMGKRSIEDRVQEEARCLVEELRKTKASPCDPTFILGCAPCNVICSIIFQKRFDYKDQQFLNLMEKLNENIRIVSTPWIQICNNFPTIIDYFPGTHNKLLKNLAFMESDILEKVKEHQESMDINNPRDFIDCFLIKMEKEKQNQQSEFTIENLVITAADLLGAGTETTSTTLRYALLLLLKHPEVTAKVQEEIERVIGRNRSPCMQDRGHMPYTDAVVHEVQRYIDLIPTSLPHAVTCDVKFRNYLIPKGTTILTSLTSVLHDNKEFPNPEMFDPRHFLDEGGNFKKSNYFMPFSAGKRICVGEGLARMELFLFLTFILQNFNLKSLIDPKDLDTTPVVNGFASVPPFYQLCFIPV
Cytochrome P450 2E1, sequence (P05181 whole entry): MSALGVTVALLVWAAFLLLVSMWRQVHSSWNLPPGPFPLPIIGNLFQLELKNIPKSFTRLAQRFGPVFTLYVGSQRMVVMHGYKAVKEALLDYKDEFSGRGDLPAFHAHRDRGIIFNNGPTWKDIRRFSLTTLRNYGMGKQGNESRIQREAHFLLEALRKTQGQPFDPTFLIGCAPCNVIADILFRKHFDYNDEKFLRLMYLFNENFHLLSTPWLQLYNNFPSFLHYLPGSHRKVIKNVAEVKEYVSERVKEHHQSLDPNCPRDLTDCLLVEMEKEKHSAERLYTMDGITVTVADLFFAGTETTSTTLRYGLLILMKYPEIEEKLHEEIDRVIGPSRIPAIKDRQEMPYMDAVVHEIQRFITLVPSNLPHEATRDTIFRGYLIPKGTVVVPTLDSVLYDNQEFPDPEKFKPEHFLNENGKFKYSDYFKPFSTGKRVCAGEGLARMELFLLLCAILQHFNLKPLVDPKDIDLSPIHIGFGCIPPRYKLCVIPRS

Compound	inhibition (INH) [1]	inhibition (INH) [2]	inhibition (INH) [3]	inhibition (INH) [4]	inhibition (INH) [5]	inhibition (INH) [6]	inhibition (INH) [7]	Drug metabolism [8]	inhibition (INH) [9]	Drug metabolism [10]	Drug metabolism [11]	Retention_time [12]	Drug metabolism [13]
CC(=O)OC[C@@]12[C@H](OC(C)=O)[C@H](OC(C)=O)[C@@H]3[C@@H](OC(C)=O)[C@@]14O[C@@]3(C)COC(=O)c1cccnc1[C@@H](C)[C@H](C)C(=O)O[C@@H]([C@H](OC(C)=O)[C@@H]2OC(C)=O)[C@]4(C)O	Active	Not Active	Not Active	Not Active	Not Active	Not Active	Not Active	Metabolite_Notdetected	–	–	–	–	–
CC(=O)OC[C@]12[C@H](OC(C)=O)[C@H](OC(C)=O)[C@@H]3[C@@H](OC(C)=O)[C@@]14O[C@@]3(C)COC(=O)c1cccnc1CC[C@@](C)(O)C(=O)O[C@@H]([C@H](OC(=O)c1ccoc1)[C@@H]2OC(C)=O)[C@]4(C)O	Active	Not Active	Not Active	Not Active	Not Active	Not Active	Active	–	Dose-dependent effect	Metabolite_Detected	Metabolite_Detected	10.55 min	Metabolite_Detected
CC(=O)OC[C@]12[C@H](OC(C)=O)[C@H](OC(C)=O)[C@@H]3[C@@H](OC(C)=O)[C@@]14O[C@@]3(C)COC(=O)c1cccnc1CCC(C)C(=O)O[C@@H]([C@H](OC(=O)c1ccoc1)[C@@H]2OC(C)=O)[C@]4(C)O (stereo not given in full)	Active	Not Active	Not Active	Not Active	Not Active	Not Active	Not Active	Metabolite_Notdetected	–	–	–	–	–
CC(=O)OC[C@]12[C@H](OC(C)=O)[C@H](OC(C)=O)[C@@H]3[C@@H](OC(C)=O)[C@@]14O[C@@]3(C)COC(=O)c1cccnc1CC[C@H](C)C(=O)O[C@@H]([C@H](OC(=O)c1ccccc1)[C@@H]2OC(C)=O)[C@]4(C)O	Active	Active	Active	Active	Active	Active	–	–	–	–	–	–	–
CC(=O)OC[C@]12[C@H](OC(C)=O)[C@H](OC(C)=O)[C@@H]3[C@@H](OC(C)=O)[C@@]14O[C@@]3(C)COC(=O)c1cccnc1CC[C@@](C)(O)C(=O)O[C@@H]([C@H](OC(=O)c1ccccc1)[C@@H]2OC(C)=O)[C@]4(C)O	Active	Active	Active	Active	Active	Active	–	–	–	–	–	–	–
